Converted amounts (≈) assume the structure as drawn.
What was measured:
[1] = test system: Bacillus subtilis ATCC6633; type: cell-based; details: for Minimal inhibitory concentration (MIC) B. subtilis ATCC6633: ATCC6633, 24 h; for Minimal bactericidal concentration (MBC) B. subtilis ATCC6633: value in bracket, 24 h at 37° C.
Method: (§1) Minimal inhibitory concentration (MIC) values and minimal bactericidal concentration (MBCs) values for ATC-peptides 1-9 were determined against both Gram-positive (Bacillus subtilis, Staphylococcus aureus, Enterococcus faecalis) and Gram negative (Escherichia coli, Pseudomonas aeruginosa) bacteria as well as a yeast (Candida albicans). Experiments were conducted in triplicate. For B. subtilis, compounds were tested against vegetative cells and spores, which are particularly resistant to the action of antimicrobial agents. MIC and MBCs values are shown Table 12. In addition, haemolytic properties of 1-9 were tested.
(§2) the antimicrobial performances of oligomers antimicrobial activity were determined on three Gram positive strains (Bacillus subtilis ATCC6633, Staphylococcus aureus ATCC6538 and Enterococcus faecalis ATCC29121), two Gram negative strains (Escherichia coli ATCC8739 and Pseudomonas aeruginosa ATCC9027) and one fungal strain (Candida albicans ATCC10231). Each bacterial strain was allowed to grow overnight on Trypto-Caseine-Soja agar (TSA, Difco) at 37° C., C. albicans was allowed to grow 48 h on a sabouraud medium (Difco) at 20-25° C. A fresh suspension at 10^8 CFU·mL^−1 was then prepared by inoculating the micro-organisms in a Tryptone-Sel solution. Concentration was monitored by measuring transmitted light at 620 nm or with the Mac Farland turbidity standard (Mac Farland=0.5≈10^8 CFU·mL^−1). Each suspension was then diluted in a doubly strong Mueller-Hinton (MH, Difco) broth to […]. Two-fold serial dilutions (100 μL) of oligomers in sterile water (pH adjusted between 7.4 and 7.7 with HCl and NaOH solutions) were mixed with microbial inoculum (100 μL) in NUNC sterile clear polystyrene flat-bottom 96-well plates. A 1/1 v/v oligomer solution/water mixture was used a negative control and a 1/1 vv water/microbial inoculum mixture was used a positive control. Plates were then incubated 24 h at 37° C. for bacteria and 48 h at 25° C. for C. albicans. Minimum Inhibitory Concentration (MIC) was determined as the lowest concentration inhibiting the growth of each micro-organism. […] Minimum Bactericidal Concentration (MBC) was determined as the lowest concentration that prevent the growth of more than one colony. Each assay was performed in a triple duplicate for each strain.

[2] = test system: Candida albicans ATCC10231; type: cell-based; details: for Minimal inhibitory concentration (MIC) C. albicans ATCC10231: ATCC10231, 48 h; for Minimal bactericidal concentration (MBC) C. albicans ATCC10231: value in bracket, 48 h at 25° C.
Method: as §1, §2

[3] = test system: Enterococcus faecalis ATCC29121; type: cell-based; details: for Minimal inhibitory concentration (MIC) E. faecalis ATCC29121: ATCC29121, 24 h; for Minimal bactericidal concentration (MBC) E. faecalis ATCC29121: value in bracket, 24 h at 37° C.
Method: as §1, §2

[4] = test system: Escherichia coli ATCC8739; type: cell-based; details: for Minimal inhibitory concentration (MIC) E. coli ATCC8739: ATCC8739, 24 h; for Minimal bactericidal concentration (MBC) E. coli ATCC8739: value in bracket, 24 h at 37° C.
Method: as §1, §2

[5] = test system: Pseudomonas aeruginosa ATCC9027; type: cell-based; details: for Minimal inhibitory concentration (MIC) P. aeruginosa ATCC9027: ATCC9027, 24 h; for Minimal bactericidal concentration (MBC) P. aeruginosa ATCC9027: value in bracket, 24 h at 37° C.
Method: as §1, §2

[6] = test system: Staphylococcus aureus ATCC6538; type: cell-based; details: for Minimal inhibitory concentration (MIC) S. aureus ATCC6538: ATCC6538, 24 h; for Minimal bactericidal concentration (MBC) S. aureus ATCC6538: value in bracket, 24 h at 37° C.
Method: as §1, §2

Hemolytic activity = type: cell-based, Human; details: human, human red blood cell suspension; hRBCs, 1 h at 37° C.; read-out: HD50, dose required to lyse 50% of the red blood cells
Method: Procedure for measurements of hemolytic activity: Human red blood cells (hRBCs) were washed multiple times with phosphate-buffered saline (PBS) until a clear supernatant was obtained. The hRBCs suspension was made in PBS with a Packed Cell Volume of 5%, Two-fold serial dilutions (50 μL) of oligomers in sterile water (pH adjusted between 7.4 and 7.7 with HCl and NaOH solutions) were mixed with hRBCs suspension (50 μL) in clear polystyrene optical-bottom 96-well plates which were filmed and incubated for 1 h at 37° C. A 1/1 vv hRBCs solution/PBS mixture was used a negative control and a 1/1 vv hRBCs solution/1% (TRIS 50 mM pH=8.0+1% SDS) mixture was used a positive control for 100% hemolysis. The mixture was then centrifuged at 1500 g for 10 min at 5° C. Next, 50 μL of the supernatant was transferred into a second plate, and the absorbance was read at 490 nm using a BioRad iMark plate reader. The hemolysis percentage was calculated by the formula % hemolysis=[Absorbance (sample)−Absorbance (negative control)]/[Absorbance (positive control)−Absorbance (negative control)]×100%. Each assay was performed in a double duplicate. Hemolytic activity was determined or estimated with the Hemolytic Concentration leading to 50% of lysis of hRBCs (HC50).

Structure (SMILES) | Minimal inhibitory concentration (MIC) B. subtilis ATCC6633 [1] | Minimal inhibitory concentration (MIC) C. albicans ATCC10231 [2] | Minimal inhibitory concentration (MIC) E. faecalis ATCC29121 [3] | Minimal inhibitory concentration (MIC) E. coli ATCC8739 [4] | Minimal inhibitory concentration (MIC) P. aeruginosa ATCC9027 [5] | Minimal inhibitory concentration (MIC) S. aureus ATCC6538 [6] | HC50 at 1 h (Hemolytic activity) | Minimal bactericidal concentration (MBC) B. subtilis ATCC6633 [1] | Minimal bactericidal concentration (MBC) C. albicans ATCC10231 [2] | Minimal bactericidal concentration (MBC) E. faecalis ATCC29121 [3] | Minimal bactericidal concentration (MBC) E. coli ATCC8739 [4] | Minimal bactericidal concentration (MBC) P. aeruginosa ATCC9027 [5] | Minimal bactericidal concentration (MBC) S. aureus ATCC6538 [6]
CC(=O)N[C@@H](CCCCN)c1nc(C)sc1C(=O)N[C@@H](C)c1nc(CCCCN)sc1C(=O)N[C@@H](C)c1nc(C)sc1C(N)=O [Oligomer 1] | >150 µM | >150 µM | >150 µM | >150 µM | >150 µM | >150 µM | > 100 µM |  |  |  |  |  | 
CC(=O)N[C@@H](CCCCN)c1nc(C)sc1C(=O)N[C@@H](C)c1nc(CCCCN)sc1C(=O)N[C@@H](C)c1nc(C)sc1C(=O)N[C@@H](CCCCN)c1nc(C)sc1C(=O)N[C@@H](C)c1nc(CCCCN)sc1C(=O)N[C@@H](C)c1nc(C)sc1C(=O)N[C@@H](CCCCN)c1nc(C)sc1C(=O)N[C@@H](C)c1nc(CCCCN)sc1C(=O)N[C@@H](C)c1nc(C)sc1C(=O)N[C@@H](CCCCN)c1nc(C)sc1C(=O)N[C@@H](C)c1nc(CCCCN)sc1C(=O)N[C@@H](C)c1nc(C)sc1C(N)=O [Oligomer 4] | 0.5 µM (≈ 1.27 µg/mL) | 3.7 µM (≈ 9.38 µg/mL) | >150 µM | 1.6 µM (≈ 4.06 µg/mL) | 3.9 µM (≈ 9.88 µg/mL) | 26 µM (≈ 65.9 µg/mL) | > 100 µM | (0.5) μM | (3.7) μM | (>150) μM | (1.6) μM | (5.2) μM | (57) μM
CC(=O)N[C@@H](CCCCN)c1nc(C)sc1C(=O)N[C@@H](CC(C)C)c1nc(CCCCN)sc1C(=O)N[C@@H](C)c1nc(CC(C)C)sc1C(=O)N[C@@H](CCCCN)c1nc(C)sc1C(=O)N[C@@H](CC(C)C)c1nc(CCCCN)sc1C(=O)N[C@@H](C)c1nc(CC(C)C)sc1C(=O)N[C@@H](CCCCN)c1nc(C)sc1C(=O)N[C@@H](CC(C)C)c1nc(CCCCN)sc1C(=O)N[C@@H](C)c1nc(CC(C)C)sc1C(=O)N[C@@H](CCCCN)c1nc(C)sc1C(=O)N[C@@H](CC(C)C)c1nc(CCCCN)sc1C(=O)N[C@@H](C)c1nc(CC(C)C)sc1C(N)=O [Oligomer 7] | 4.2 µM (≈ 12.1 µg/mL) | 25 µM (≈ 71.8 µg/mL) | 10.4 µM (≈ 29.9 µg/mL) | 14.6 µM (≈ 41.9 µg/mL) | 14.6 µM (≈ 41.9 µg/mL) | 16.7 µM (≈ 47.9 µg/mL) | > 100 µM | (6.2) μM | (25) μM | (12.5) μM | (16.5) μM | (19) μM | (25) μM
CC(=O)N[C@@H](CCCNC(=N)N)c1nc(C)sc1C(=O)N[C@@H](C)c1nc(CCCNC(=N)N)sc1C(=O)N[C@@H](C)c1nc(C)sc1C(=O)N[C@@H](CCCNC(=N)N)c1nc(C)sc1C(=O)N[C@@H](C)c1nc(CCCNC(=N)N)sc1C(=O)N[C@@H](C)c1nc(C)sc1C(=O)N[C@@H](CCCNC(=N)N)c1nc(C)sc1C(=O)N[C@@H](C)c1nc(CCCNC(=N)N)sc1C(=O)N[C@@H](C)c1nc(C)sc1C(N)=O [Oligomer 8] | 0.5 µM (≈ 1.04 µg/mL) | 9.4 µM (≈ 19.6 µg/mL) | 100 µM (≈ 208 µg/mL) | 0.8 µM (≈ 1.67 µg/mL) | 54 µM (≈ 113 µg/mL) | 14.6 µM (≈ 30.4 µg/mL) | > 100 µM | (0.5) μM | (12.5) μM | (>100) μM | (0.8) μM | (100) μM | (16.5) μM

Continued, in another order:

Minimal inhibitory concentration (MIC) B. subtilis ATCC6633 [1] | Minimal inhibitory concentration (MIC) C. albicans ATCC10231 [2] | Minimal inhibitory concentration (MIC) E. faecalis ATCC29121 [3] | Minimal inhibitory concentration (MIC) E. coli ATCC8739 [4] | Minimal inhibitory concentration (MIC) P. aeruginosa ATCC9027 [5] | Minimal inhibitory concentration (MIC) S. aureus ATCC6538 [6] | Structure (SMILES) | HC50 at 1 h (Hemolytic activity) | Minimal bactericidal concentration (MBC) B. subtilis ATCC6633 [1] | Minimal bactericidal concentration (MBC) C. albicans ATCC10231 [2] | Minimal bactericidal concentration (MBC) E. faecalis ATCC29121 [3] | Minimal bactericidal concentration (MBC) E. coli ATCC8739 [4] | Minimal bactericidal concentration (MBC) P. aeruginosa ATCC9027 [5] | Minimal bactericidal concentration (MBC) S. aureus ATCC6538 [6]
30 µM (≈ 38.9 µg/mL) | 62.5 µM (≈ 81 µg/mL) | >150 µM | >150 µM | >150 µM | >150 µM | CC(=O)N[C@@H](CCCCN)c1nc(C)sc1C(=O)N[C@@H](C)c1nc(CCCCN)sc1C(=O)N[C@@H](C)c1nc(C)sc1C(=O)N[C@@H](CCCCN)c1nc(C)sc1C(=O)N[C@@H](C)c1nc(CCCCN)sc1C(=O)N[C@@H](C)c1nc(C)sc1C(N)=O [Oligomer 2] | > 100 µM |  |  |  |  |  | 
0.8 µM (≈ 1.53 µg/mL) | 10.4 µM (≈ 19.9 µg/mL) | >150 µM | 5.2 µM (≈ 9.96 µg/mL) | 42 µM (≈ 80.5 µg/mL) | >150 µM | CC(=O)N[C@@H](CCCCN)c1nc(C)sc1C(=O)N[C@@H](C)c1nc(CCCCN)sc1C(=O)N[C@@H](C)c1nc(C)sc1C(=O)N[C@@H](CCCCN)c1nc(C)sc1C(=O)N[C@@H](C)c1nc(CCCCN)sc1C(=O)N[C@@H](C)c1nc(C)sc1C(=O)N[C@@H](CCCCN)c1nc(C)sc1C(=O)N[C@@H](C)c1nc(CCCCN)sc1C(=O)N[C@@H](C)c1nc(C)sc1C(N)=O [Oligomer 3] | > 100 µM | (0.8) μM | (10.4) μM | (>150) μM | (7.3) μM | (83) μM | (>150) μM
1.3 µM (≈ 2.82 µg/mL) | 6.2 µM (≈ 13.4 µg/mL) | 6.2 µM (≈ 13.4 µg/mL) | 8.3 µM (≈ 18 µg/mL) | 6.2 µM (≈ 13.4 µg/mL) | 5.2 µM (≈ 11.3 µg/mL) | CC(=O)N[C@@H](CCCCN)c1nc(C)sc1C(=O)N[C@@H](CC(C)C)c1nc(CCCCN)sc1C(=O)N[C@@H](C)c1nc(CC(C)C)sc1C(=O)N[C@@H](CCCCN)c1nc(C)sc1C(=O)N[C@@H](CC(C)C)c1nc(CCCCN)sc1C(=O)N[C@@H](C)c1nc(CC(C)C)sc1C(=O)N[C@@H](CCCCN)c1nc(C)sc1C(=O)N[C@@H](CC(C)C)c1nc(CCCCN)sc1C(=O)N[C@@H](C)c1nc(CC(C)C)sc1C(N)=O [Oligomer 6] | 23 µM |  | (6.2) μM | (6.2) μM | (8.3) μM | (6.2) μM | (5.2) μM

Source: patent publication US20220242905A1, “MODIFIED PEPTIDES AND THEIR USE” (UNIVERSITE DE MONTPELLIER, priority 2018, published 2022)
